Laboratory results: patent US20230293517A1, “ANTAGONIST COMPOUNDS” (AdoRx Therapeutics Limited, priority 2020, published 2023)
Read-outs that look alike come from different tables or passages of the source.

Experiments:
[1] = target: human Adenosine A2a receptor (Homo sapiens (Human), UniProt P29274); assay: Adenosine receptor TR-FRET binding assay (A2a); details: inhibition of binding of 100 nM CA200645, CHO cell membranes
Method in brief: (§1)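 TR-FRET displacement of fluorescent XAC (CA200645; 30 nM for A2b, 100 nM for A1/A2a/A3) from terbium-labelled human receptors in CHO membranes, 2 h at room temperature with saponin, 1% DMSO. Non-specific binding with 10 μM XAC; 665/620 nm ratio; Ki from IC50 by Cheng–Prusoff.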

[2] = target: human Adenosine A1 receptor (Homo sapiens (Human), UniProt P30542); assay: Adenosine receptor TR-FRET binding assay (A1); details: inhibition of binding of 100 nM CA200645, CHO cell membranes
human Adenosine A1 receptor, sequence (P30542 whole entry): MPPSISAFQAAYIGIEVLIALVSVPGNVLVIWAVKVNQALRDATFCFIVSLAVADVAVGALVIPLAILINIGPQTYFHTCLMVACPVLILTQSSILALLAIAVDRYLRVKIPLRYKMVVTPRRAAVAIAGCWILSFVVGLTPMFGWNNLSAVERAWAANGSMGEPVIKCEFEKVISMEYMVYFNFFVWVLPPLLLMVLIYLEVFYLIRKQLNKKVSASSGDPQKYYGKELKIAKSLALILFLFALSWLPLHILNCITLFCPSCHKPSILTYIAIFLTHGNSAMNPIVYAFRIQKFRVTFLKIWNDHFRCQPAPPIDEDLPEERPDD
Method in brief: as §1

[3] = test system: CD8+T cells in human whole blood; assay: Measurement of pCREB in CD8+T cells in human whole blood; assay type: cell-based; details: 3 μM NECA, rolipram
Description: Biological Example—Measurement of pCREB in CD8+T Cells in Human Whole Blood
Heparinised human whole blood was pre-incubated at 37° C. with serial dilutions of A2a antagonists for 20 min. and the phosphodiesterase inhibitor rolipram to amplify the pCREB response. The adenosine receptor agonist NECA is then added at a final concentration of 3 μM and following a 60 min incubation the blood is fixed and red blood cells lysed. White blood cells are isolated, permeabilized and stained with directly conjugated fluorescent antibodies to phospho-CREB (Alexa Fluor 488) and CD8 (Alexa Fluor 647) and the level of phospho-CREB in CD8+T cells is measured by FACS using a BD Accuri C6 Flow Cytometer.

[4] = target: human Adenosine A3 receptor (Homo sapiens (Human), UniProt P0DMS8); assay: Adenosine receptor TR-FRET binding assay (A3); details: inhibition of binding of 100 nM CA200645, CHO cell membranes
human Adenosine A3 receptor, sequence (P0DMS8 whole entry): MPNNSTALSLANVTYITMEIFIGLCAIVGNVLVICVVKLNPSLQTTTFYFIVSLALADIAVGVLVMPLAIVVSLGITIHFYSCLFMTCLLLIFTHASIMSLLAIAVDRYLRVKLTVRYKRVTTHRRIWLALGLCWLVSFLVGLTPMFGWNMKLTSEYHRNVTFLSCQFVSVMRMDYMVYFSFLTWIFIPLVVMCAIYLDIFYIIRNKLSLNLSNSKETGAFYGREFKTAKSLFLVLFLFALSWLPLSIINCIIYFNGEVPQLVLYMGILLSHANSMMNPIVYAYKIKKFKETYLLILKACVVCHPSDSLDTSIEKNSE
Method in brief: as §1

[5] = target: human Adenosine A2b receptor (Homo sapiens (Human), UniProt P29275); assay: Adenosine receptor TR-FRET binding assay (A2b)
human Adenosine A2b receptor, sequence (P29275 whole entry): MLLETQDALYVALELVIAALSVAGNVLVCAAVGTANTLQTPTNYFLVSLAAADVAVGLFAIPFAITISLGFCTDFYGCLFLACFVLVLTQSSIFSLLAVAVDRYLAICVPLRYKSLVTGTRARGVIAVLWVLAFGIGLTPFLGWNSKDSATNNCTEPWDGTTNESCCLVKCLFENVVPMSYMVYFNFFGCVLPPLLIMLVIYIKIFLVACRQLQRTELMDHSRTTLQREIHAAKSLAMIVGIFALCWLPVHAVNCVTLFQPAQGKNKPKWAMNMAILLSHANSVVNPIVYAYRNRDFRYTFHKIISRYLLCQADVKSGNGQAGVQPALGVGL
Method in brief: as §1

human PBMCs = assay: CD3/CD28 stimulated IL-2 release NECA reversal assay in human PBMCs; assay type: cell-based; details: PBMC, 1 uM NECA, 24 hours, IL-2 in culture supernatant
Description: Biological Example—CD3/CD28 Stimulated IL-2 Release NECA Reversal Assay in Human PBMCs
Blood is drawn from healthy volunteers using sodium citrate as the anticoagulant (0.3% final concentration). After centrifugation of the blood over Histopaque-1077, PBMCs are collected from the Histopaque/plasma interface and washed twice in PBS (300 g for 10 mins at room temp). Cells are plated at 50,000 cells/well in 150 μl RPMI/10% FCS in 96-well cell culture plates that have been precoated with 1 ug/ml CD3 antibody. 50 μl diluted compound mix is added to the cells, to obtain final concentrations of 1 ug/ml CD28 antibody, 1 uM NECA and 0.003-10 μM adenosine receptor antagonist. Assay plates are incubated for 24 hours at 37° C. in a humidified incubator. Culture supernatant is tested for IL-2 levels using the human IL-2 Tissue Culture Kit (Meso Scale Discovery). Data for dose-response curves is calculated as % inhibition with 100% inhibition defined from no agonist control wells (+CD3/28-NECA)

[6] = TR-FRET, inhibition of binding of 30 nM CA200645, CHO cell membranes

human Adenosine A2a receptor, sequence (P29274 whole entry): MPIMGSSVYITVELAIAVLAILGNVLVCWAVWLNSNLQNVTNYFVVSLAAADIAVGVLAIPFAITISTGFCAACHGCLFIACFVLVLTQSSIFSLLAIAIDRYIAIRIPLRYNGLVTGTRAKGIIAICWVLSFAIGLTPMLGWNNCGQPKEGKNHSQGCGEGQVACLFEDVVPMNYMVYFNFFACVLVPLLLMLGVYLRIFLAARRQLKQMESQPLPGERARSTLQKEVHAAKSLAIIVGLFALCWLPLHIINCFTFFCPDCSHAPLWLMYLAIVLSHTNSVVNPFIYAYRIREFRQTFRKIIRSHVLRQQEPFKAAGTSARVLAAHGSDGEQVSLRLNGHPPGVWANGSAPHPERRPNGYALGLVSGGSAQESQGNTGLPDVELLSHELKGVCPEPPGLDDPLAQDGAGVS

SMILES | Ki [1] [nM] | Ki [2] [nM] | IC50 [3] [nM] | Ki [4] [nM] | Ki [5, 6] [nM] | Ki [5] [nM] | IC50 (human PBMCs) [nM]
Cc1cc(-c2sc(NC(=O)N3CCNCC3)nc2-c2cccc(C#N)c2)cc(Cl)n1 [Example 3.1] | 3.11 | 94 | 1770 | 267 | 6.6 |  | 13
Cc1cc(-c2sc(NC(=O)N3CCN(C4COC4)CC3)nc2-c2cccc(C#N)c2)cc(Cl)n1 [Example 3.11] | 0.52 | 102 | 670 | 1300 | 1.2 |  | 10.4
Cc1cc(-c2sc(NC(=O)N3CCN(C)CC3)nc2-c2cccc(C#N)c2)cc(C)n1 [Example 4, N-[4-(3-Cyanophenyl)-5-(2,6-dimethyl-4-pyridyl)thiazol-2-yl]-4-methyl-piperazine-1-carboxamide] | 1.01 | 60 | 130 | 1000 | 0.7 |  | 3.8
Cc1cc(-c2sc(NC(=O)N3CCN(CCO)CC3)nc2-c2cccc(C#N)c2)cc(C)n1 [Example 4.3, N-[4-(3-Cyanophenyl)-5-(2,6-dimethyl-4-pyridyl)thiazol-2-yl]-4-(2-hydroxyethyl)piperazine-1-carboxamide] | 0.7 | 187 | 170 | 603 | 3.8 |  | 18.2
Cc1cc(-c2sc(NC(=O)N3CC[C@H](O)C3)nc2-c2cccc(C#N)c2)cc(C)n1 [Example 4.5, (3S)-N-[4-(3-Cyanophenyl)-5-(2,6-dimethyl-4-pyridyl)thiazol-2-yl]-3-hydroxy-pyrrolidine-1-carboxamide] | 1.54 | 16 | 160 | 94 | 1.4 |  | 8.5
Cc1cc(-c2sc(NC(=O)N3CCN4CCOCC4C3)nc2-c2cccc(C#N)c2)cc(C)n1 (stereo not drawn) [Example 4.11, N-[4-(3-Cyanophenyl)-5-(2,6-dimethyl-4-pyridyl)thiazol-2-yl]-3,4,6,7,9,9a-hexahydro-1H-pyrazino[2,1-c][1,4]oxazine-8-carboxamide] | 1.3 | 225 | 220 | 482 | 4.7 |  | 3.8
Cc1cc(-c2sc(NC(=O)N3CCNC(=O)C3)nc2-c2cccc(C#N)c2)cc(C)n1 [Example 4.13, N-[4-(3-Cyanophenyl)-5-(2,6-dimethyl-4-pyridyl)thiazol-2-yl]-3-oxo-piperazine-1-carboxamide] | 1.5 | 50 | 550 | 195 | 1.7 |  | 14.1
Cc1cc(-c2sc(NC(=O)N3CCN(C)C(=O)C3)nc2-c2cccc(C#N)c2)cc(C)n1 [Example 4.15, N-[4-(3-Cyanophenyl)-5-(2,6-dimethyl-4-pyridyl)thiazol-2-yl]-4-methyl-3-oxo-piperazine-1-carboxamide] | 2.3 | 91 | 650 | 339 | 1.4 |  | 10.3
CC(=O)N1CCN(C(=O)Nc2nc(-c3cccc(C#N)c3)c(-c3cc(C)nc(C)c3)s2)CC1 [Example 4.17, 4-Acetyl-N-[4-(3-cyanophenyl)-5-(2,6-dimethyl-4-pyridyl)thiazol-2-yl]piperazine-1-carboxamide] | 1.9 | 77 | 370 | 293 | 2.8 |  | 8.5
Cc1cc(-c2sc(NC(=O)N3CCN(S(C)(=O)=O)CC3)nc2-c2cccc(C#N)c2)cc(C)n1 [Example 4.18, N-[4-(3-cyanophenyl)-5-(2,6-dimethyl-4-pyridyl)thiazol-2-yl]-4-methylsulfonyl-piperazine-1-carboxamide] | 0.6 | 94 | 350 | 414 | 2.3 |  | 6.1
Cc1cc(-c2sc(NC(=O)N3CCN(S(N)(=O)=O)CC3)nc2-c2cccc(C#N)c2)cc(C)n1 [Example 4.19, N-[4-(3-cyanophenyl)-5-(2,6-dimethyl-4-pyridyl)thiazol-2-yl]-4-sulfamoyl-piperazine-1-carboxamide] | 0.6 | 46 | 5520 | 232 |  | 1.3 | 5.4

Stronger by Ki [1], values ahead:

Ki [1] [nM] | Ki [2] [nM] | IC50 [3] [nM] | Ki [4] [nM] | Ki [5, 6] [nM] | Ki [5] [nM] | SMILES | IC50 (human PBMCs) [nM]
0.49 | 81 | 470 | 338 | 2.2 |  | Cc1cc(-c2sc(NC(=O)N3CCN[C@H](C(C)(C)O)C3)nc2-c2cccc(C#N)c2)cc(Cl)n1 [Example 3.9] | 17.9
0.41 | 21 | 80 | 225 | 0.8 |  | Cc1cc(-c2sc(NC(=O)N3CCC(C)(C#N)C3)nc2-c2cccc(C#N)c2)cc(C)n1 (racemic) [Example 27, 3-Cyano-N-[4-(3-cyanophenyl)-5-(2,6-dimethyl-4-pyridyl)thiazol-2-yl]-3-methyl-pyrrolidine-1-carboxamide] | 0.9
0.4 | 234 | 280 | 849 | 1 |  | Cc1cc(-c2sc(NC(=O)N3CCC(C(C)(C)O)C3)nc2-c2cccc(C#N)c2)cc(Cl)n1 (stereo not drawn) [Example 2, N-[5-(2-Chloro-6-methyl-4-pyridyl)-4-(3-cyanophenyl)thiazol-2-yl]-3-(1-hydroxy-1-methyl-ethyl)pyrrolidine-1-carboxamide] | 2
0.38 | 50 | 100 | 157 | 2.5 |  | Cc1cc(-c2sc(NC(=O)N3CC[C@@H](C#N)C3)nc2-c2cccc(C#N)c2)cc(C)n1 [Example 4.10, (3R)-3-Cyano-N-[4-(3-cyanophenyl)-5-(2,6-dimethyl-4-pyridyl)thiazol-2-yl]pyrrolidine-1-carboxamide] | 2.9
0.27 | 28 | 90 | 881 | 4.4 |  | Cc1cc(-c2sc(NC(=O)N3CCS(=N)(=O)CC3)nc2-c2cccc(C#N)c2)cc(C)n1 [Example 4.2, N-[4-(3-Cyanophenyl)-5-(2,6-dimethyl-4-pyridyl)thiazol-2-yl]-1-imino-1-oxo-1,4-thiazinane-4-carboxamide] | 7.9
0.25 | 18 | 600 | 531 | 1 |  | Cc1cc(-c2sc(NC(=O)N3CCS(=N)(=O)CC3)nc2-c2cccc(C#N)c2)cc(Cl)n1 [Example 3.12] | 8
0.2 | 14 | 290 | 382 | 1.1 |  | Cc1cc(-c2sc(NC(=O)N3CCC(C)(O)CC3)nc2-c2cccc(C#N)c2)cc(Cl)n1 [Example 3.7] | 3.3
0.05 | 6 | 90 | 125 | 1.3 |  | Cc1cc(-c2sc(NC(=O)N3CCC(F)(C#N)CC3)nc2-c2cccc(C#N)c2)cc(C)n1 [Example 4.7, 4-Cyano-N-[4-(3-cyanophenyl)-5-(2,6-dimethyl-4-pyridyl)thiazol-2-yl]-4-fluoro-piperidine-1-carboxamide] | 0.8
